According to US4778789A, “Piperazinecarboxamides having a phenoxyalkyl or thiophenoxyalkyl side chain” (priority 1985, dated 1988):
Structures can show the parent of a compound that is named as a salt.

Tested on: isolation induced aggressive behaviour (male NMRI mice)
Assay: Isolation induced aggressive behaviour test
Assay type: in vivo
Settings: Mus musculus, sc, 0.5 hour after drug administration, read-out: ED50 (dose inhibiting aggressive behaviour among 50 percent of the pairs)
From the text: This type of aggression is interesting because it is known that this kind of emotional behaviour might be located in limbic structures in the brain (MacLean, P. D., Psychosom. Med. 11, 338 (1949)).
Every week male NMRI mice, weighing 20-22 g, were isolated in Makrolon cages for three weeks with diet and water ad libitum. A piece of cardboard was placed between the cages to prevent visual contact.
To test aggressiveness the mice were paired in a neutral area, a beaker (14 cm high and diameter 14 cm). A pair is considered aggressive if both the animals show clear signs of fighting within 5 minutes. This fighting is characterized by biting and vocalization. A soon as fighting is seen, the mice are separated and brought to their home cage (every second mouse is marked). […] Animals showing no aggression are discarded.
The test substance is administered s.c. (0.2-0.4 ml/20 g). The mice are paired 0.5 hour after the injection for trials of 5 minutes' duration.
The ED50 -value (mg/kg) reported is the dose inhibiting aggressive behaviour among 50 percent of the pairs 0.5 hour after drug administration.

| Compound | ED50 [mg/kg] |
| --- | --- |
| CCNC(=O)N1CCN(CCCOc2ccc(F)cc2)CC1 [1:3, 4-/3-(p-fluorophenoxy)proyl/-N-ethyl-1-piperazinecarboxamide hydrochloride] | 5 |
| CSc1ccc2c(c1)N(CCC1CCCCN1C)c1ccccc1S2 (centres unmarked) [Thioridazine] | 5 |
